Our source for the IC50 values is patent US20220372067A1, “3.ALPHA.-HYDROXY-17.BETA.-AMIDE NEUROACTIVE STEROIDS AND COMPOSITIONS THEREOF” (SAGE THERAPEUTICS, INC., priority 2018, published 2022).

pIC50: −log10 of the molar value. Bounds are passed on as bounds.

This test addresses GABAA receptor (TBPS binding site), rat brain cortical membranes. Description: [35S]-TBPS binding assay, rat brain cortical membranes in the presence of 5 mM GABA. Particulars: inhibition of 3 nM [35S]-TBPS binding. The protocol: [^35S]-t-Butylbicyclophosphorothionate (TBPS) binding assays using rat brain cortical membranes in the presence of 5 mM GABA has been described (Gee et al, J. Pharmacol. Exp. Ther. 1987, 241, 346-353; Hawkinson et al, Mol. Pharmacol. 1994, 46, 977-985; Lewin, A. H et al., Mol. Pharmacol. 1989, 35, 189-194).
Briefly, cortices are rapidly removed following decapitation of carbon dioxide-anesthetized Sprague-Dawley rats (200-250 g). The cortices are homogenized in 10 volumes of ice-cold 0.32 M sucrose using a glass/teflon homogenizer and centrifuged at 1500×g for 10 min at 4° C. The resultant supernatants are centrifuged at 10,000×g for 20 min at 4° C. to obtain the P2 pellets. The P2 pellets are resuspended in 200 mM NaCl/50 mM Na—K phosphate pH 7.4 buffer and centrifuged at 10,000×g for 10 min at 4° C. This washing procedure is repeated twice and the pellets are resuspended in 10 volumes of buffer. Aliquots ([…]) of the membrane suspensions are incubated with 3 nM [^35S]-TBPS and […] aliquots of test drug dissolved in dimethyl sulfoxide (DMSO) (final 0.5%) in the presence of 5 mM GABA. The incubation is brought to a final volume of 1.0 mL with buffer. Nonspecific binding is determined in the presence of […] and ranged from 15 to 25%. Following a 90 min incubation at room temp, the assays are terminated by filtration through glass fiber filters (Schleicher and Schuell No. 32) using a cell harvester (Brandel) and rinsed three times with ice-cold buffer. Filter bound radioactivity is measured by liquid scintillation spectrometry. Non-linear curve fitting of the overall data for each drug averaged for each concentration is done using Prism (GraphPad). […] The concentration of test compound producing 50% inhibition (IC50) of specific binding and the maximal extent of inhibition (Imax) are determined for the individual experiments with the same model used for the overall data and then the means±SEM.s of the individual experiments are calculated.
Various compounds are or can be screened to determine their potential as modulators of [^35S]-TBPS binding in vitro. These assays are or can be performed in accordance with the above
One may read the pIC50 as the negative decadic logarithm of the IC50, by convention in mol/L. As for `CC[C@@]1(O)CC[C@H]2[C@H](CC[C@@H]3[C@@H]2CC[C@]2(C)[C@@H](C(=O)Nc4nc(C)ccc4Cl)CC[C@@H]32)C1` [Example 16, (3R,5R,8R,9R,10S,13S,14S,17S)-N-(3-chloro-6-methylpyridin-2-yl)-3-ethyl-3-hydroxy-13-methylhexadecahydro-1H-cyclopenta[a]phenanthrene-17-carboxamide], the pIC50 is 6.00 to 7.00.
The value for `CCOC[C@@]1(O)CC[C@H]2[C@H](CC[C@@H]3[C@@H]2CC[C@]2(C)[C@@H](C(=O)Nc4cccnc4)CC[C@@H]32)C1` [Example 21] was 6.00 to 7.00; that for `COC[C@@]1(O)CC[C@H]2[C@H](CC[C@@H]3[C@@H]2CC[C@]2(C)[C@@H](C(=O)Nc4ccc(C)nc4)CC[C@@H]32)C1` [Example 40] was above 7.00.
For `COC[C@@]1(O)CC[C@@]2(C)[C@@H](CC[C@@H]3[C@@H]2CC[C@]2(C)[C@@H](C(=O)Nc4cccc(C)n4)CC[C@@H]32)C1` [Example 5, (3R,5S,8R,9S,10S,13S,14S,17S)-3-hydroxy-3-(methoxymethyl)-10,13-dimethyl-N-(6-methylpyridin-2-yl)hexadecahydro-1H-cyclopenta[a]phenanthrene-17-carboxamide], the pIC50 was above 7.00.
For `CCOC[C@@]1(O)CC[C@@]2(COC(C)C)[C@H](CC[C@H]3[C@@H]4CC[C@H](C(=O)Nc5ccc(C#N)cn5)[C@@]4(C)CC[C@@H]32)C1` [Example 9, (3R,5R,8S,9S,10R,13S,14S,17S)-N-(5-cyanopyridin-2-yl)-3-(ethoxymethyl)-3-hydroxy-10-(isopropoxymethyl)-13-methylhexadecahydro-1H-cyclopenta[a]phenanthrene-17-carboxamide], the pIC50 is above 7.00.
Take `CCOC[C@@]1(O)CC[C@H]2[C@H](CC[C@@H]3[C@@H]2CC[C@]2(C)[C@@H](C(=O)Nc4cncc(C#N)n4)CC[C@@H]32)C1` [Example 58]: the negative-log IC50 (pIC50) is above 7.00.
As for `COC[C@@]1(O)CC[C@H]2[C@H](CC[C@@H]3[C@@H]2CC[C@]2(C)[C@@H](C(=O)Nc4cccnc4C)CC[C@@H]32)C1` [Example 51], the negative-log IC50 (pIC50) is above 7.00.
For the molecule `CCOC[C@@]1(O)CC[C@H]2[C@H](CC[C@@H]3[C@@H]2CC[C@]2(C)[C@@H](C(=O)Nc4ccc(N5CCCC5=O)nc4C)CC[C@@H]32)C1` [Example 65], the pIC50 was above 7.00.
Regarding `CCOC[C@@]1(O)CC[C@@]2(CC)[C@H](CC[C@H]3[C@@H]4CC[C@H](C(=O)Nc5cnc(C#N)cn5)[C@@]4(C)CC[C@@H]32)C1` [Example 11, (3R,5R,8S,9S,10S,13S,14S,17S)-N-(5-cyanopyrazin-2-yl)-3-(ethoxymethyl)-10-ethyl-3-hydroxy-13-methylhexadecahydro-1H-cyclopenta[a]phenanthrene-17-carboxamide], the pIC50 was above 7.00.
Turning to `CCOC[C@@]1(O)CC[C@H]2[C@H](CC[C@@H]3[C@@H]2CC[C@]2(C)[C@@H](C(=O)Nc4cnc(C#N)cn4)CC[C@@H]32)C1` [Example 28], the pIC50 is above 7.00.
For the molecule `CCOC[C@@]1(O)CC[C@H]2[C@H](CC[C@@H]3[C@@H]2CC[C@]2(C)[C@@H](C(=O)Nc4ccncc4)CC[C@@H]32)C1` [Example 1, (3R,5R,8R,9R,10S,13S,14S,17S)-3-(ethoxymethyl)-3-hydroxy-13-methyl-N-(pyridin-4-yl)hexadecahydro-1H-cyclopenta[a]phenanthrene-17-carboxamide], the pIC50 was above 7.00.
As to `COC[C@@]1(O)CC[C@H]2[C@H](CC[C@@H]3[C@@H]2CC[C@]2(C)[C@@H](C(=O)Nc4ccc(C(F)(F)F)nc4C)CC[C@@H]32)C1` [Example 46], the pIC50 was above 7.00.
On to `CCOC[C@@]1(O)CC[C@H]2[C@H](CC[C@@H]3[C@@H]2CC[C@]2(C)[C@@H](C(=O)Nc4cccnc4F)CC[C@@H]32)C1` [Example 66, (3R,5R,8R,9R,10S,13S,14S,17S)-3-(ethoxymethyl)-N-(2-fluoropyridin-3-yl)-3-hydroxy-13-methylhexadecahydro-1H-cyclopenta[a]phenanthrene-17-carboxamide], for which the negative-log IC50 (pIC50) was above 7.00.
Take `CCC[C@@]1(O)CC[C@@]2(C)[C@H](CC[C@@H]3[C@@H]2CC[C@]2(C)[C@@H](C(=O)Nc4ccc(C#N)cn4)CC[C@@H]32)C1` [Example 68, (3R,5R,8R,9S,10S,13S,14S,17S)-N-(5-cyanopyridin-2-yl)-3-hydroxy-10, 13-dimethyl-3-propylhexadecahydro-1H-cyclopenta[a]phenanthrene-17-carboxamide]: the negative logarithm of the IC50 (pIC50) was above 7.00.
As to `COC[C@@]1(O)CC[C@H]2[C@H](CC[C@@H]3[C@@H]2CC[C@]2(C)[C@@H](C(=O)Nc4ccc(N5CCCC5=O)nc4C)CC[C@@H]32)C1` [Example 49], the pIC50 was above 7.00.
As for `CCOC[C@@]1(O)CC[C@H]2[C@H](CC[C@@H]3[C@@H]2CC[C@]2(C)[C@@H](C(=O)Nc4cc(C)nn4C)CC[C@@H]32)C1` [Example 30], the pIC50 is above 7.00.
With `CCOC[C@@]1(O)CC[C@H]2[C@H](CC[C@@H]3[C@@H]2CC[C@]2(C)[C@@H](C(=O)Nc4ccc(C#N)cn4)CC[C@@H]32)C1` [Example 22], the pIC50 is above 7.00.
As for `COC[C@@]1(O)CC[C@H]2[C@H](CC[C@@H]3[C@@H]2CC[C@]2(C)[C@@H](C(=O)Nc4ccc(-n5nccc5C)nc4C)CC[C@@H]32)C1` [Example 47], the pIC50 is above 7.00.
Under `COC[C@@]1(O)CC[C@H]2[C@H](CC[C@@H]3[C@@H]2CC[C@]2(C)[C@@H](C(=O)Nc4ncccc4Cl)CC[C@@H]32)C1` [Example 39] stands 6.00 to 7.00.
As for `COC[C@@]1(O)CC[C@H]2[C@H](CC[C@@H]3[C@@H]2CC[C@]2(C)[C@@H](C(=O)Nc4nc(C)ccc4Cl)CC[C@@H]32)C1` [Example 44], the negative-log IC50 (pIC50) was 6.00 to 7.00.
Under `CCOC[C@@]1(O)CC[C@@]2(CC)[C@H](CC[C@H]3[C@@H]4CC[C@H](C(=O)Nc5ccc(C#N)cn5)[C@@]4(C)CC[C@@H]32)C1` [Example 33] stands above 7.00.
Under `C[C@]12CC[C@H]3[C@@H](CC[C@@H]4C[C@H](O)CC[C@@H]43)[C@@H]1CC[C@@H]2C(=O)Nc1cnc(C#N)cn1` [Example 14, (3R,5R,8R,9R,10S,13S,14S,17S)-N-(5-cyanopyrazin-2-yl)-3-hydroxy-13-methylhexadecahydro-1H-cyclopenta[a]phenanthrene-17-carboxamide] stands above 7.00; under `CCOC[C@@]1(O)CC[C@H]2[C@H](CC[C@@H]3[C@@H]2CC[C@]2(C)[C@@H](C(=O)Nc4ccnc(C)n4)CC[C@@H]32)C1` [Example 63], above 7.00; under `COC[C@@]1(O)CC[C@H]2[C@H](CC[C@@H]3[C@@H]2CC[C@]2(C)[C@@H](C(=O)Nc4ccc(C)nc4Cl)CC[C@@H]32)C1` [Example 43], above 7.00.
Take `COC[C@@]1(O)CC[C@H]2[C@H](CC[C@@H]3[C@@H]2CC[C@]2(C)[C@@H](C(=O)Nc4ccc(C#N)nc4C)CC[C@@H]32)C1` [Example 41]: the pIC50 was above 7.00.
